# Experimental data reported in the OligoGym collection.
# HELM strings list units from the 5' end as sugar, base in round brackets, then linkage (d deoxyribose, r ribose, m 2'-O-methyl, p phosphodiester). Strings are as the collection lists them, not checked against the first reports. ss, as = sense and antisense strand; [fl2r] = 2'-fluoro
# Conditions: siRNA
# Also: test system not given here.
row,Substance,target mRNA knockdown [%]
1,RNA1{m(U)p.r(A)p.r(C)p.r(C)p.r(G)p.r(A)p.r(G)p.r(A)p.r(A)p.r(U)p.r(G)p.r(A)p.r(G)p.r(C)p.r(C)p.r(U)p.r(G)p.r(A)p.r(U)p.r(T)p.r(T)}|RNA2{r(A)p.r(U)p.r(C)p.r(A)p.r(G)p.r(G)p.r(C)p.r(U)p.r(C)p.r(A)p.r(U)p.r(U)p.r(C)p.r(U)p.r(C)p.r(G)p.r(G)p.m(U)p.r(A)p.r(T)p.r(T)}$$$RNA1{StrandType:ss}|RNA2{StrandType:as}$,55
2,RNA1{m(U)p.r(A)p.r(G)p.r(C)p.m(C)p.r(A)p.r(G)p.r(A)p.r(G)p.r(C)p.m(C)p.r(A)p.r(A)p.r(A)p.r(G)p.r(A)p.r(A)p.r(G)p.r(C)p.r(T)p.r(T)}|RNA2{r(G)p.r(C)p.r(U)p.r(U)p.r(C)p.r(U)p.r(U)p.r(U)p.r(G)p.m(G)p.r(C)p.r(U)p.r(C)p.r(U)p.r(G)p.m(G)p.m(C)p.m(U)p.r(A)p.r(T)p.r(T)}$$$RNA1{StrandType:ss}|RNA2{StrandType:as}$,85
3,RNA1{m(U)p.r(A)p.r(G)p.r(C)p.r(C)p.r(A)p.r(G)p.r(A)p.r(G)p.r(C)p.r(C)p.r(A)p.r(A)p.r(A)p.r(G)p.r(A)p.r(A)p.r(G)p.r(C)p.r(T)p.r(T)}|RNA2{r(G)p.r(C)p.r(U)p.r(U)p.r(C)p.r(U)p.r(U)p.r(U)p.r(G)p.r(G)p.r(C)p.r(U)p.r(C)p.r(U)p.r(G)p.r(G)p.r(C)p.m(U)p.r(A)p.r(T)p.r(T)}$$$RNA1{StrandType:ss}|RNA2{StrandType:as}$,82
4,RNA1{m(U)p.r(C)p.m(C)p.r(C)p.m(U)p.r(U)p.m(C)p.r(C)p.m(A)p.r(C)p.m(C)p.r(G)p.m(C)p.r(C)p.m(A)p.r(U)p.m(A)p.r(U)p.m(U)p.r(T)p.r(T)}|RNA2{r(A)p.r(A)p.r(U)p.r(A)p.r(U)p.r(G)p.r(G)p.r(C)p.r(G)p.r(G)p.r(U)p.r(G)p.r(G)p.r(A)p.r(A)p.r(G)p.r(G)p.r(G)p.r(A)p.r(T)p.r(T)}$$$RNA1{StrandType:ss}|RNA2{StrandType:as}$,11
5,RNA1{m(U)p.r(C)p.m(C)p.r(U)p.m(A)p.r(G)p.m(C)p.r(U)p.m(G)p.r(U)p.m(C)p.r(U)p.m(U)p.r(G)p.m(U)p.r(C)p.m(C)p.r(C)p.m(U)p.r(T)p.r(T)}|RNA2{r(A)p.r(G)p.r(G)p.r(G)p.r(A)p.r(C)p.r(A)p.r(A)p.r(G)p.r(A)p.r(C)p.r(A)p.r(G)p.r(C)p.r(U)p.r(A)p.r(G)p.r(G)p.r(A)p.r(T)p.r(T)}$$$RNA1{StrandType:ss}|RNA2{StrandType:as}$,27
6,RNA1{m(U)p.r(C)p.m(C)p.r(U)p.m(C)p.r(G)p.m(U)p.r(C)p.m(G)p.r(U)p.m(C)p.r(U)p.m(G)p.r(U)p.m(U)p.r(C)p.m(U)p.r(A)p.m(A)p.r(T)p.r(T)}|RNA2{r(U)p.r(U)p.m(A)p.r(G)p.m(A)p.r(A)p.r(C)p.r(A)p.r(G)p.r(A)p.r(C)p.r(G)p.r(A)p.r(C)p.r(G)p.r(A)p.m(G)p.r(G)p.m(A)p.r(T)p.r(T)}$$$RNA1{StrandType:ss}|RNA2{StrandType:as}$,63
7,RNA1{m(U)p.r(C)p.m(U)p.r(A)p.m(C)p.r(A)p.m(C)p.r(C)p.m(G)p.r(C)p.m(G)p.r(C)p.m(C)p.r(C)p.m(C)p.r(C)p.m(C)p.r(U)p.m(C)p.r(T)p.r(T)}|RNA2{r(G)p.r(A)p.r(G)p.r(G)p.r(G)p.r(G)p.r(G)p.r(G)p.r(C)p.r(G)p.r(C)p.r(G)p.r(G)p.r(U)p.r(G)p.r(U)p.r(A)p.r(G)p.r(A)p.r(T)p.r(T)}$$$RNA1{StrandType:ss}|RNA2{StrandType:as}$,39
8,RNA1{m(U)p.r(C)p.m(U)p.r(C)p.m(G)p.r(U)p.m(A)p.r(A)p.m(G)p.r(G)p.m(A)p.r(C)p.m(G)p.r(A)p.m(A)p.r(A)p.m(C)p.r(G)p.r(A)p.r(T)p.r(T)}|RNA2{r(U)p.r(C)p.r(G)p.r(U)p.r(U)p.r(U)p.r(C)p.r(G)p.r(U)p.r(C)p.r(C)p.r(U)p.r(U)p.r(A)p.r(C)p.r(G)p.r(A)p.r(G)p.r(A)p.r(T)p.r(T)}$$$RNA1{StrandType:ss}|RNA2{StrandType:as}$,34
9,RNA1{m(U)p.r(G)p.m(A)p.r(A)p.m(C)p.r(G)p.m(U)p.r(C)p.m(A)p.r(C)p.m(C)p.r(G)p.m(A)p.r(G)p.m(G)p.r(A)p.m(G)p.r(A)p.m(A)p.r(T)p.r(T)}|RNA2{r(U)p.r(U)p.r(C)p.r(U)p.r(C)p.r(C)p.r(U)p.r(C)p.r(G)p.r(G)p.r(U)p.r(G)p.m(A)p.r(C)p.r(G)p.r(U)p.r(U)p.r(C)p.m(A)p.r(T)p.r(T)}$$$RNA1{StrandType:ss}|RNA2{StrandType:as}$,65
10,RNA1{m(U)p.r(G)p.r(A)p.r(A)p.r(C)p.r(G)p.r(U)p.m(C)p.r(A)p.r(C)p.r(C)p.r(G)p.r(A)p.r(G)p.r(G)p.r(A)p.r(G)p.r(A)p.r(A)p.r(T)p.r(T)}|RNA2{r(U)p.r(U)p.r(C)p.r(U)p.r(C)p.r(C)p.r(U)p.r(C)p.r(G)p.r(G)p.m(U)p.r(G)p.r(A)p.r(C)p.r(G)p.r(U)p.r(U)p.m(C)p.r(A)p.r(T)p.r(T)}$$$RNA1{StrandType:ss}|RNA2{StrandType:as}$,82
11,RNA1{m(U)p.r(U)p.m(A)p.r(A)p.m(A)p.r(G)p.m(G)p.r(G)p.m(C)p.r(G)p.m(A)p.r(G)p.m(A)p.r(A)p.m(G)p.r(A)p.m(C)p.r(C)p.m(G)p.r(T)p.r(T)}|RNA2{r(C)p.r(G)p.r(G)p.r(U)p.r(C)p.r(U)p.r(U)p.r(C)p.r(U)p.r(C)p.r(G)p.r(C)p.r(C)p.r(C)p.r(U)p.r(U)p.r(U)p.r(A)p.r(A)p.r(T)p.r(T)}$$$RNA1{StrandType:ss}|RNA2{StrandType:as}$,67
12,RNA1{m(U)p.r(U)p.m(A)p.r(A)p.m(G)p.r(G)p.m(A)p.r(G)p.m(A)p.r(A)p.m(G)p.r(C)p.m(U)p.r(G)p.m(A)p.r(C)p.m(G)p.r(G)p.m(C)p.r(T)p.r(T)}|RNA2{m(G)p.r(C)p.r(C)p.m(G)p.r(U)p.r(C)p.r(A)p.m(G)p.r(C)p.r(U)p.r(U)p.r(C)p.r(U)p.r(C)p.r(C)p.r(U)p.r(U)p.r(A)p.r(A)p.r(T)p.r(T)}$$$RNA1{StrandType:ss}|RNA2{StrandType:as}$,45
13,RNA1{m(U)p.r(U)p.m(A)p.r(A)p.m(G)p.r(G)p.m(A)p.r(G)p.m(A)p.r(A)p.m(G)p.r(C)p.m(U)p.r(G)p.m(A)p.r(C)p.m(G)p.r(G)p.m(C)p.r(T)p.r(T)}|RNA2{r(G)p.r(C)p.r(C)p.r(G)p.r(U)p.r(C)p.r(A)p.r(G)p.r(C)p.r(U)p.r(U)p.r(C)p.r(U)p.r(C)p.r(C)p.r(U)p.r(U)p.r(A)p.r(A)p.r(T)p.r(T)}$$$RNA1{StrandType:ss}|RNA2{StrandType:as}$,24
14,RNA1{m(U)p.r(U)p.m(A)p.r(C)p.m(A)p.r(A)p.m(A)p.r(G)p.m(G)p.r(A)p.m(U)p.r(C)p.m(U)p.r(C)p.m(C)p.r(U)p.m(C)p.r(C)p.m(C)p.r(T)p.r(T)}|RNA2{r(G)p.r(G)p.r(G)p.m(A)p.r(G)p.r(G)p.m(A)p.r(G)p.m(A)p.r(U)p.r(C)p.r(C)p.r(U)p.r(U)p.r(U)p.r(G)p.r(U)p.m(A)p.m(A)p.r(T)p.r(T)}$$$RNA1{StrandType:ss}|RNA2{StrandType:as}$,51
15,RNA1{m(U)p.r(U)p.m(A)p.r(C)p.m(A)p.r(A)p.m(A)p.r(G)p.m(G)p.r(A)p.m(U)p.r(C)p.m(U)p.r(C)p.m(C)p.r(U)p.m(C)p.r(C)p.m(C)p.r(T)p.r(T)}|RNA2{r(G)p.r(G)p.r(G)p.r(A)p.r(G)p.r(G)p.r(A)p.r(G)p.r(A)p.r(U)p.m(C)p.m(C)p.r(U)p.r(U)p.r(U)p.r(G)p.r(U)p.r(A)p.r(A)p.r(T)p.r(T)}$$$RNA1{StrandType:ss}|RNA2{StrandType:as}$,57
16,RNA1{m(U)p.r(U)p.m(G)p.r(G)p.m(G)p.r(G)p.m(A)p.r(A)p.m(G)p.r(C)p.m(G)p.r(G)p.m(C)p.r(C)p.m(G)p.r(G)p.m(C)p.r(G)p.m(G)p.r(T)p.r(T)}|RNA2{r(C)p.r(C)p.r(G)p.r(C)p.r(C)p.r(G)p.r(G)p.r(C)p.r(C)p.r(G)p.r(C)p.r(U)p.r(U)p.r(C)p.r(C)p.r(C)p.r(C)p.m(A)p.m(A)p.r(T)p.r(T)}$$$RNA1{StrandType:ss}|RNA2{StrandType:as}$,36
17,RNA1{m(U)p.r(U)p.m(U)p.r(G)p.m(A)p.r(U)p.m(C)p.r(A)p.m(G)p.r(C)p.m(G)p.r(G)p.m(A)p.r(G)p.m(A)p.r(C)p.m(U)p.r(C)p.m(G)p.r(T)p.r(T)}|RNA2{r(C)p.r(G)p.r(A)p.r(G)p.r(U)p.r(C)p.r(U)p.r(C)p.r(C)p.m(G)p.r(C)p.r(U)p.r(G)p.r(A)p.m(U)p.r(C)p.r(A)p.r(A)p.r(A)p.r(T)p.r(T)}$$$RNA1{StrandType:ss}|RNA2{StrandType:as}$,49
18,RNA1{r(A)p.[fl2r](A)p.r(G)p.r(G)p.r(C)p.[fl2r](C)p.r(A)p.r(A)p.r(C)p.r(C)p.r(G)p.r(A)p.[fl2r](U)p.r(A)p.r(C)p.r(U)p.r(U)p.r(C)p.r(U)p.r(T)p.r(T)}|RNA2{r(A)p.r(G)p.r(A)p.r(A)p.r(G)p.[fl2r](U)p.r(A)p.r(U)p.r(C)p.r(G)p.r(G)p.r(U)p.[fl2r](U)p.r(G)p.r(G)p.r(C)p.r(C)p.r(U)p.r(U)p.r(T)p.r(T)}$$$RNA1{StrandType:ss}|RNA2{StrandType:as}$,68
19,RNA1{r(A)p.[fl2r](C)p.r(A)p.[fl2r](U)p.r(A)p.[fl2r](G)p.r(A)p.r(G)p.r(G)p.r(A)p.r(A)p.r(G)p.r(A)p.r(C)p.r(G)p.r(C)p.r(G)p.r(G)p.r(A)p.r(T)p.r(T)}|RNA2{r(U)p.r(C)p.r(C)p.r(G)p.r(C)p.r(G)p.r(U)p.r(C)p.r(U)p.r(U)p.r(C)p.r(C)p.r(U)p.r(C)p.[fl2r](U)p.r(A)p.[fl2r](U)p.r(G)p.r(U)p.r(T)p.r(T)}$$$RNA1{StrandType:ss}|RNA2{StrandType:as}$,86
20,RNA1{r(A)p.m(A)p.r(G)p.m(G)p.r(A)p.m(G)p.r(A)p.m(U)p.r(C)p.m(A)p.r(A)p.m(C)p.r(A)p.m(U)p.r(U)p.m(U)p.r(U)p.m(C)p.r(A)p.r(T)p.r(T)}|RNA2{m(U)p.r(G)p.m(A)p.r(A)p.m(A)p.r(A)p.m(U)p.r(G)p.m(U)p.r(U)p.m(G)p.r(A)p.m(U)p.r(C)p.m(U)p.r(C)p.m(C)p.r(U)p.m(U)p.r(T)p.r(T)}$$$RNA1{StrandType:ss}|RNA2{StrandType:as}$,83
21,RNA1{r(A)p.m(A)p.r(G)p.m(G)p.r(A)p.m(G)p.r(A)p.m(U)p.r(C)p.m(A)p.r(A)p.m(C)p.r(A)p.m(U)p.r(U)p.m(U)p.r(U)p.m(C)p.r(A)p.r(T)p.r(T)}|RNA2{r(U)p.m(G)p.r(A)p.m(A)p.r(A)p.m(A)p.r(U)p.m(G)p.r(U)p.m(U)p.r(G)p.m(A)p.r(U)p.m(C)p.r(U)p.m(C)p.r(C)p.m(U)p.r(U)p.r(T)p.r(T)}$$$RNA1{StrandType:ss}|RNA2{StrandType:as}$,61
